Structures are written as SMILES. Read-outs that look alike come from different tables or passages of the source.

The target in series [1] is EGFR[L858R/T790M] (Homo sapiens (Human), UniProt P00533, L858R/T790M). Put plainly: Kinase inhibition assay (HTRF Kinase TK), EGFR[L858R/T790M]. The series is classed as biochemical. An excerpt: (§1) WT EGFR (Carna, Cat. No 08-115), EGFR[L858R] (Carna, Cat. No 08-502), EGFR[L858R/T790M] (Carna, Cat. No 08-510), ATP (Sigma, Cat. No A7699-1G), DMSO (Sigma, Cat. No D2650), 96-well plate (Corning, Cat. No 3365), 384-well plate (Greiner, Cat. No 784076). HTRF Kinase TK Kit (Cisbio. Cat. No 62TK0PEJ), erlotinib (Selleckchem, Cat. No S7787), EGFR[d746-750] (Life Technologies, Cat. No PV6178), 5× kinase buffer A (Life Technologies, Cat. No PV3186), kinase tracer 199 (Life Technologies, Cat. No PV5830), LanthaScreen® Eu-anti-GST antibody (Life Technologies, Cat. No PV5594).
Sequence of EGFR[L858R/T790M] (P00533 25-1210 T790M/L858R): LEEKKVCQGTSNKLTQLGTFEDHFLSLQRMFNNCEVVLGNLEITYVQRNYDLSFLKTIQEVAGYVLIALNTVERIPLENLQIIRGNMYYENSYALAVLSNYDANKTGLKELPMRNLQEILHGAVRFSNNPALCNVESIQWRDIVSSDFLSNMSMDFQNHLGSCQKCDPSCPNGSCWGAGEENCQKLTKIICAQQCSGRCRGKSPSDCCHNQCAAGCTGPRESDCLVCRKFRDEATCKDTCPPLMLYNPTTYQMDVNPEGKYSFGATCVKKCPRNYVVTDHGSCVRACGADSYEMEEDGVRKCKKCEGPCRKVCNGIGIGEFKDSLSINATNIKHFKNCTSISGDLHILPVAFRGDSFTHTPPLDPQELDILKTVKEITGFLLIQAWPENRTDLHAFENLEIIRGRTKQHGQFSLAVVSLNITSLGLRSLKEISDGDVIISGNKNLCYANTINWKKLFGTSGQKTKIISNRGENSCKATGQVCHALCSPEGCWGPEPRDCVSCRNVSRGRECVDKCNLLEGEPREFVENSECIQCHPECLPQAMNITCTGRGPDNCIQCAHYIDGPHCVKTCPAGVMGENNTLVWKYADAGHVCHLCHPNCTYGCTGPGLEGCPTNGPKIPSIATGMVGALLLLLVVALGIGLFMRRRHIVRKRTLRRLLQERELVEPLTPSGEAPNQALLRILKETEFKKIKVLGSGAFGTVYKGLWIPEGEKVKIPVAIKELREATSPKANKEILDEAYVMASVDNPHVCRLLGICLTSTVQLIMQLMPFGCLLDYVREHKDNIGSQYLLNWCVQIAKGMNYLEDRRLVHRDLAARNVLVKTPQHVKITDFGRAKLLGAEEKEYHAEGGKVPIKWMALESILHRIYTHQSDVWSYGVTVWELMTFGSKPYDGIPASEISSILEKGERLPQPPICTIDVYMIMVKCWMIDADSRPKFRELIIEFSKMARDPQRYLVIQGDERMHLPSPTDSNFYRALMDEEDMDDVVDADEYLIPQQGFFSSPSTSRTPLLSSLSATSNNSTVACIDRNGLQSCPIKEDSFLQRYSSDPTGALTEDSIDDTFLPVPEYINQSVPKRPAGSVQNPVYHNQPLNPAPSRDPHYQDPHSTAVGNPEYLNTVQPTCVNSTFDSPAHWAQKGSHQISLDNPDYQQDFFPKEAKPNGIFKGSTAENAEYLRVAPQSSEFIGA
(§2) Formulation of compound: The test compound was dissolved in DMSO to prepare a 20 mM stock solution. The stock solution was then serially diluted 3-fold in DMSO to obtain ten concentrations. After the compound was added, a 10-fold dilution was performed with buffer.
(§3) WT EGFR and EGFR[L858R/T790M] kinase detection: In 5× kinase buffer A, WT EGFR or EGFR[L858R/T790M] kinase was mixed with different concentrations of compounds prepared by pre-dilution for 10 minutes. Each concentration was tested in duplicate. The corresponding substrate and ATP were added, and reaction was performed at room temperature for 20 minutes (negative and positive controls were provided: the negative control was a blank control, and the positive control was erlotinib). After completion of the reaction, detection reagents (reagents in the HTRF Kinase TK kit) were added. After incubating for 30 minutes at room temperature, enzyme activity in the presence of various concentrations of the compounds of the present disclosure was determined by Evnvision microplate reader, and inhibitory activity of different concentrations of the compounds on enzyme activity was calculated. The inhibitory activity of different concentrations of the compounds on enzyme activity was then fitted by Graphpad 5.0 software according to the four-parameter equation, and the IC50 value was calculated.

Series [2] addresses WT EGFR (Homo sapiens (Human), UniProt P00533). Put plainly: Kinase inhibition assay (HTRF Kinase TK), WT EGFR. In kind it is biochemical.
Excerpt: as §1, §2, §3

Series [3] deals with lung cancer cell NCI-H1975 (L858R/T790M). Put plainly: Cytotoxicity assay (MTS cell viability), NCI-H1975. In kind it is cell-based. As to conditions: Homo sapiens, 72 hours. On the procedure: (§4) In vitro anti-proliferation activity of the compound of the present disclosure on three tumor cell lines cultured in vitro was detected by the MTS method.
(§5) Cell lines: skin cancer cell A431 (purchased from the American Type Culture Collection (ATCC)); lung cancer cell NCI-H1975 (purchased from the American Type Culture Collection (ATCC)) and HCC827 (purchased from the American Type Culture Collection (ATCC)); all were cultured with RPM11640 medium containing 10% fetal bovine serum, 100 U/ml penicillin, and […] streptomycin.
(§6) Reagents and materials: RPMI-1640 (GIBCO, Cat. No A10491-01); fetal bovine serum (GIBCO, Cat. No 10099141): 0.25% trypsin-EDTA (GIBCO, Cat. No 25200); penicillin-streptomycin; liquid (GIBCO, Cat. No 15140-122); DMSO (Sigma, Cat. No D2650); MTS Assay Kit (Promega, Cat. No G3581), 96-well plate (Corning, Cat. No 3365).
(§7) Formulation of compound: The test compound was dissolved in DMSO to prepare a 20 mM stock solution, which was stored at −20° C. The stock solution was then serially diluted 3-fold in DMSO to obtain ten concentrations. After the compound was added, a 4-fold dilution was performed with cell culture medium.
(§8) MTS cell viability assay: cells in logarithmic growth phase was digested with 0.25% trypsin-EDTA, and 150 μl of the cells was inoculated in a 96-well plate at an optimized density. After 24 hours, the compound diluted 4 fold in the medium was added, 50 μl/well (generally ten concentrations were selected: 100, 33.3, 11.1, 3.70, 1.23, 0.412, 0.137, 0.0457, 0.0152, 0.00508 μM). The same volume of 0.5% DMSO was added in wells as a control. After the cells were cultured for another 72 hours, the cell viability was detected by MTS.
(§9) Specific procedure: The cells were adhered. The medium was discarded. A mixture containing 20 μL MTS and 100 μl medium was added to each well. After incubating for 1-4 hours in an incubator, OD490 was detected, with the OD650 value as a reference. A dose-effect curve was made using GraphPad Prism software and IC50 was calculated.

The test system of series [4] is skin cancer cell A431. Put plainly: Cytotoxicity assay (MTS cell viability), A431. In kind it is cell-based. The conditions noted are these: Homo sapiens, A-431, 72 hours. On the procedure: as §4, §5, §6, §7, §8, §9
Series [5] is described as follows: Pharmacokinetic assay in rats. The conditions noted are these: rat; for AUC(0-t) / Cmax / Tmax / half-life / AUC(0-inf) / MRT inf / bioavailability: male, Sprague-Dawley, plasma; for AUC(0-inf): read-out: AUCINF_pred; for MRT inf: read-out: MRTINF_pred; for bioavailability: PO 10 mg/kg vs IV 0.5 mg/kg. In kind it is in vivo, Sprague-Dawley rats. On the procedure:
Six male Sprague-Dawley rats (7-8 weeks old, and weighing about 210 g) were divided into 2 groups, 3 rats in each group. A single dose of compounds (10 mg/kg orally) was administered intravenously or orally to compare their pharmacokinetics.
The rats were fed with standard feed and water. Fasting was started 16 hours before the assay. The drug was dissolved in PEG400 and dimethyl sulfoxide. Blood was collected from the orbit. The time points for blood collection were 0.083 hours, 0.25 hours, 0.5 hours, 1 hour, 2 hours, 4 hours, 6 hours, 8 hours, 12 hours and 24 hours after administration.
The rats were briefly anesthetized after inhaling diethyl ether, and 300 μL of blood sample was collected from the orbit into a test tube containing 30 μL of 1% heparin salt solution. Before use, the test tube was oven dried overnight at 60° C. After the blood sample was collected at the last time point, the rats were anesthetized with diethyl ether and then sacrificed.
Immediately after the blood sample was collected, the test tube was gently inverted at least 5 times to ensure sufficient mixing, and then placed on ice. The blood sample was centrifuged at 5000 rpm at 4° C. for 5 minutes to separate the plasma from the red blood cells. 100 μL of plasma was aspirated into a clean plastic centrifuge tube with a pipette, and the name of the compound and time point were marked. The plasma was stored at −80° C. before analysis. The concentration of the compound of the present disclosure in plasma was determined by LC-MS/MS. The pharmacokinetic parameters were calculated based on the blood drug concentration of each animal at different time points.

Series [6] has as its system lung cancer cell HCC827 (Del19). Put plainly: Cytotoxicity assay (MTS cell viability), HCC827. In kind it is cell-based. The conditions noted are these: Homo sapiens, 72 hours. On the procedure: as §4, §5, §6, §7, §8, §9

Sequence of WT EGFR (P00533 25-1210): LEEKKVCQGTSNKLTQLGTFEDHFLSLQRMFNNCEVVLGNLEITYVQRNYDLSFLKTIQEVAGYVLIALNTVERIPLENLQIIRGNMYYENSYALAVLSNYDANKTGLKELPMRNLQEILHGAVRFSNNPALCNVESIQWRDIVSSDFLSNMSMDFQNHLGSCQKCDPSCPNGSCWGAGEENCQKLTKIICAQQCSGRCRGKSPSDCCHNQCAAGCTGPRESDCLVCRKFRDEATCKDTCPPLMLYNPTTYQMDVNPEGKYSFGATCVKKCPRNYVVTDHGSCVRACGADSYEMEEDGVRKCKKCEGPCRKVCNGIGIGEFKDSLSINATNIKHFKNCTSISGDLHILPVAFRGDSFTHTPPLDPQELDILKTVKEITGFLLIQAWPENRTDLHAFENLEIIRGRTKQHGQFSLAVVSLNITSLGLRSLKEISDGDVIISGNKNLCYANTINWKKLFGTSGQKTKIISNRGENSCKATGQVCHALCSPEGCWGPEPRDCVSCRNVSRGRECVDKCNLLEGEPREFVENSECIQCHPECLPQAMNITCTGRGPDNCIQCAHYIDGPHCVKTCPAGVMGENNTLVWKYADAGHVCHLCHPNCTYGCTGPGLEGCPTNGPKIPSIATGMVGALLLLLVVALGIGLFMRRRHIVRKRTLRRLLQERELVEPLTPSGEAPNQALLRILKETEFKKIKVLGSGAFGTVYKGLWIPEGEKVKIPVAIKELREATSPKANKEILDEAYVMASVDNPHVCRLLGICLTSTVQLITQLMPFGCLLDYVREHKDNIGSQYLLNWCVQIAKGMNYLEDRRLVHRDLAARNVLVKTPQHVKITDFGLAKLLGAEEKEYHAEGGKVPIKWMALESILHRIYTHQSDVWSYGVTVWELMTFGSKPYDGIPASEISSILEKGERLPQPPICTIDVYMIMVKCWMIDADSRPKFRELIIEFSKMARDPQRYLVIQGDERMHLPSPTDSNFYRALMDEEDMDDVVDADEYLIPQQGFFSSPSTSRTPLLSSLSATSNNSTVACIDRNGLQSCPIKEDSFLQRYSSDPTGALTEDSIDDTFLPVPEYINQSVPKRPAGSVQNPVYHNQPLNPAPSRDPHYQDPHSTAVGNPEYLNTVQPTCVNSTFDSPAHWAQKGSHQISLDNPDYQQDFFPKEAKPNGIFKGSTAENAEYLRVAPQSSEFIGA

In series [1], `C=CC(=O)Nc1cc(Nc2nccc(-n3cc(CN(C)C)c(-c4ccccc4)n3)n2)c(OC)nc1N1CCOCC1` [Compound T-1, N-(5-((4-(4-((dimethylamino)methyl)-3-phenyl-1H-pyrazol-1-yl)pyrimidin-2-yl)amino)-6-methoxy-2-morpholinopyridin-3-yl)acrylamide] had an IC50 of 0.4 nM. The compound also came in with an IC50 in series [2] of 1.29 nM. Besides, the IC50 in series [3] turned out to be 2.43 nM. The compound further came in with an IC50 in series [4] of 260 nM. For the same compound, in series [5] (IV 0.5 mg/kg), the AUC(0-t) is 328 ng·h/mL, the Cmax amounted to 246 ng/mL, the time to peak (Tmax) was 0.08 h and the half-life is 2.8 h. Also, in series [5] (IV 0.5 mg/kg), the AUC(0-inf) stood at 341 ng·h/mL, the MRT inf amounted to 2.32 h, the “Cl_pred” value was 24.5 mL/min/kg and the “Vz_pred” value was determined as 5.94 L/kg. Further, in series [5] (PO 10 mg/kg), the AUC(0-t) was 1430 ng·h/mL, the Cmax was found to be 91.1 ng/mL, the time of peak concentration (Tmax) is 5.33 h and the half-life is 8.69 h. Also, in series [5] (PO 10 mg/kg), the AUC(0-inf) was 1790 ng·h/mL, the MRT inf amounted to 9.11 h, the “Cl_pred” value worked out at 97.5 mL/min/kg and the “Vz_pred” value was found to be 73.39 L/kg. Besides, the bioavailability in series [5] came to 21.8%. For the same compound, in series [6], the IC50 was determined as 3.64 nM.
`C=CC(=O)Nc1cc(Nc2ncc(F)c(-n3cc(CN(C)C)c(-c4ccccc4)n3)n2)c(OC)nc1N1CCOCC1` [Compound T-2, N-(5-((4-(4-((dimethylamino)methyl)-3-phenyl-1H-pyrazol-1-yl)-5-fluoropyrimidin-2-yl)amino)-6-methoxy-2-morpholinopyridin-3-yl) acrylamide] displayed an IC50 in series [1] of 0.44 nM. Half-maximal inhibition in series [2] (IC50) required 3.33 nM. This compound showed an IC50 in series [3] of 9.51 nM. The compound further yielded an IC50 in series [4] of 1410 nM. For the same compound, in series [5] (IV 0.5 mg/kg), the AUC(0-t) was determined as 284 ng·h/mL, the highest level (Cmax) was 268 ng/mL, the time to peak (Tmax) is 0.08 h and the half-life is 2.17 h. In series [5] (IV 0.5 mg/kg), the AUC(0-inf) was 289 ng·h/mL, the MRT inf stood at 1.95 h, the “Cl_pred” value worked out at 29.2 mL/min/kg and the “Vz_pred” value worked out at 5.49 L/kg. In series [5] (PO 10 mg/kg), the AUC(0-t) was determined as 753 ng·h/mL, the peak level (Cmax) was 69.3 ng/mL, the Tmax was found to be 2.33 h and the half-life was 6.4 h. In series [5] (PO 10 mg/kg), the AUC(0-inf) came out at 840 ng·h/mL, the MRT inf is 7.67 h, the “Cl_pred” value stood at 200.8 mL/min/kg and the “Vz_pred” value is reported as 111.2 L/kg. In addition, the bioavailability in series [5] was found to be 25.1%. The half-maximal inhibitory concentration (IC50) in series [6] was 8.25 nM.
As for `C=CC(=O)Nc1cc(Nc2ncc(C)c(-n3cc(CN(C)C)c(-c4ccccc4)n3)n2)c(OC)nc1N1CCOCC1` [Compound T-3, N-(5-((4-(4-((dimethylamino)methyl)-3-phenyl-H-pyrazol-1-yl)-5-methylpyrimidin-2-yl)amino)-6-methoxy-2-morpholinopyridin-3-yl)acrylamide], the IC50 in series [1] was found to be 0.6 nM; in series [2], 6.29 nM; in series [3], 21.9 nM; in series [4], 342 nM; in series [6], 12.1 nM.
As for `C=CC(=O)Nc1cc(Nc2nccc(-n3cc(CN(C)C)c(-c4ccccc4)n3)n2)c(OC(C)C)nc1N1CCOCC1` [Compound T-4, N-(5-((4-(4-((dimethylamino)methyl)-3-phenyl-1H-pyrazol-1-yl)-pyrimidin-2-yl)amino)-6-isopropoxy-2-morpholinopyridin-3-yl)acrylamide], the IC50 was 0.81 nM in series [1]; 1.98 nM in series [2]; 13.2 nM in series [3]; 130 nM in series [4]; 5.06 nM in series [6].
With `C=CC(=O)Nc1cc(Nc2nccc(-c3cc(CN(C)C)n(-c4ccccc4)n3)n2)c(OC)cc1N1CCOCC1` [Compound T-7, N-(5-((4-(5-((dimethylamino)methyl)-1-phenyl-1H-pyrazol-3-yl)pyrimidin-2-yl)amino)-4-methoxy-2-morpholinophenyl)acrylamide], the IC50 in series [1] came out at 1.15 nM; in series [2], 0.55 nM; in series [3] it was 23.5 nM; in series [4], 226 nM; in series [6], 4.44 nM.
Take `C=CC(=O)Nc1cc(Nc2nccc(-n3cc(CN(C)C)c(-c4ccccc4)n3)n2)c(OC)cc1N1CCOCC1` [YH25448, reference compound]: in series [5] (IV 0.5 mg/kg), the “Cl_pred” value turned out to be 17.5 mL/min/kg and the “Vz_pred” value was determined as 5.73 L/kg. Moreover, in series [5] (PO 10 mg/kg), the “Cl_pred” value came out at 94.2 mL/min/kg and the “Vz_pred” value worked out at 61.56 L/kg.

(Values after patent US12312329B2, “Aminopyrimidine compound used for inhibiting activity of protein kinase” (Shenzhen TargetRx, Inc., priority 2018, dated 2025).)
